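Abbreviation: GI50, concentration required for 50% inhibition of growth. TGI: concentration producing complete growth inhibition.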
Columns and labels:
Test in all cases: inhibition of tumour cell growth, NCI panel, 384-well format
A549 NSCLC = system: A549 NSCLC
K-562 leukemia = system: K-562 leukemia
UACC-62 melanoma = system: UACC-62 melanoma
HCT-15 colon = system: HCT-15 colon
SK-MEL-5 melanoma = system: SK-MEL-5 melanoma
TK-10 renal = system: TK-10 renal
ACHN renal = system: ACHN renal
A498 renal = system: A498 renal
M14 melanoma = system: M14 melanoma
SF-539 CNS = system: SF-539 CNS
OVCAR-3 ovarian = system: OVCAR-3 ovarian
OVCAR-8 ovarian = system: OVCAR-8 ovarian
SNB-19 CNS = system: SNB-19 CNS
CCRF-CEM leukemia = system: CCRF-CEM leukemia
SN12C renal = system: SN12C renal
NCI-H460 NSCLC = system: NCI-H460 NSCLC
HT29 colon = system: HT29 colon
SF-268 CNS = system: SF-268 CNS
786-0 renal = system: 786-0 renal
SK-MEL-28 melanoma = system: SK-MEL-28 melanoma
IGROV1 ovarian = system: IGROV1 ovarian
RPMI-8226 leukemia = system: RPMI-8226 leukemia
DU-145 prostate = system: DU-145 prostate
MALME-3M melanoma = system: MALME-3M melanoma
NCI/ADR-RES ovarian = system: NCI/ADR-RES ovarian
SF-295 CNS = system: SF-295 CNS
HCT-116 colon = system: HCT-116 colon
MOLT-4 leukemia = system: MOLT-4 leukemia
NCI-H522 lung = system: NCI-H522 lung
KM12 colon = system: KM12 colon
COLO 205 colon = system: COLO 205 colon
RXF 393 renal = system: RXF 393 renal
SW-620 colon = system: SW-620 colon
MDA-MB-231 breast = system: MDA-MB-231 breast
UO-31 renal = system: UO-31 renal
NCI-H23 lung = system: NCI-H23 lung
CAKI-1 renal = system: CAKI-1 renal
BT-549 breast = system: BT-549 breast
NCI-H322M lung = system: NCI-H322M lung
HL-60(TB) leukemia = system: HL-60(TB) leukemia
HOP-92 NSCLC = system: HOP-92 NSCLC
MCF7 breast = system: MCF7 breast
LOX IMVI melanoma = system: LOX IMVI melanoma
HCC-2998 colon = system: HCC-2998 colon
PC-3 prostate = system: PC-3 prostate
MDA-MB-468 breast = system: MDA-MB-468 breast
EKVX NSCLC = system: EKVX NSCLC
U251 glioblastoma = system: U251 glioblastoma
NCI-H226 lung = system: NCI-H226 lung
SNB-75 CNS = system: SNB-75 CNS
HS 578T breast = system: HS 578T breast
MDA-MB-435 melanoma = system: MDA-MB-435 melanoma
SK-OV-3 ovarian = system: SK-OV-3 ovarian
UACC-257 melanoma = system: UACC-257 melanoma
HOP-62 NSCLC = system: HOP-62 NSCLC
SR leukemia = system: SR leukemia
T-47D breast = system: T-47D breast
OVCAR-4 ovarian = system: OVCAR-4 ovarian

Question: What does the source list for `CN1CCN(c2ccc(Nc3ncc4cc(C#N)c(=O)n(C5CCCC5)c4n3)cc2)CC1`?
Answer: GI50 (A549 NSCLC): 1040 nM; TGI (A549 NSCLC): 16.1 µM; GI50 (K-562 leukemia): 462 nM; TGI (K-562 leukemia): > 100 µM; GI50 (UACC-62 melanoma): 1400 nM; TGI (UACC-62 melanoma): 23.6 µM; GI50 (HCT-15 colon): 837 nM; TGI (HCT-15 colon): 15.4 µM; GI50 (SK-MEL-5 melanoma): 10.9 µM; TGI (SK-MEL-5 melanoma): 26.6 µM; GI50 (TK-10 renal): 1320 nM; TGI (TK-10 renal): 12.4 µM; GI50 (ACHN renal): 521 nM; TGI (ACHN renal): 22.9 µM; GI50 (A498 renal): 1090 nM; TGI (A498 renal): 7.46 µM; GI50 (M14 melanoma): 1070 nM; TGI (M14 melanoma): > 100 µM; GI50 (SF-539 CNS): 2230 nM; TGI (SF-539 CNS): 13.2 µM; GI50 (OVCAR-3 ovarian): 3.1 µM; TGI (OVCAR-3 ovarian): 14.4 µM; GI50 (OVCAR-8 ovarian): 4.65 µM; TGI (OVCAR-8 ovarian): 37.2 µM; GI50 (SNB-19 CNS): 3.17 µM; TGI (SNB-19 CNS): > 100 µM; GI50 (CCRF-CEM leukemia): 365 nM; TGI (CCRF-CEM leukemia): 1720 nM; GI50 (SN12C renal): 271 nM; TGI (SN12C renal): 4.43 µM; GI50 (NCI-H460 NSCLC): 271 nM; TGI (NCI-H460 NSCLC): 11 µM; GI50 (HT29 colon): 1180 nM; TGI (HT29 colon): > 100 µM; GI50 (SF-268 CNS): 1650 nM; TGI (SF-268 CNS): 12.6 µM; GI50 ([…]-0 renal): 755 nM; TGI (786-0 renal): 28.2 µM; GI50 (SK-MEL-28 melanoma): 8.46 µM; TGI (SK-MEL-28 melanoma): 72.1 µM; GI50 (IGROV1 ovarian): 674 nM; TGI (IGROV1 ovarian): 11 µM; GI50 (RPMI-8226 leukemia): 79.8 nM; TGI (RPMI-8226 leukemia): 818 nM; GI50 (DU-145 prostate): 1560 nM; TGI (DU-145 prostate): 25.8 µM; GI50 (MALME-3M melanoma): 535 nM; TGI (MALME-3M melanoma): 92.9 µM; GI50 (NCI/ADR-RES ovarian): 8.59 µM; TGI (NCI/ADR-RES ovarian): 34.9 µM; GI50 (SF-295 CNS): 632 nM; TGI (SF-295 CNS): 19.8 µM; GI50 (HCT-116 colon): 372 nM; TGI (HCT-116 colon): 11.1 µM; GI50 (MOLT-4 leukemia): 141 nM; TGI (MOLT-4 leukemia): 532 nM; GI50 (NCI-H522 lung): 1200 nM; TGI (NCI-H522 lung): 18.9 µM; GI50 (KM12 colon): 1020 nM; TGI (KM12 colon): 55.5 µM; GI50 (COLO 205 colon): 981 nM; TGI (COLO 205 colon): > 100 µM; GI50 (RXF 393 renal): 727 nM; TGI (RXF 393 renal): 3.14 µM; GI50 (SW-620 colon): 728 nM; TGI (SW-620 colon): 28 µM; GI50 (MDA-MB-231 breast): 718 nM; TGI (MDA-MB-231 breast): > 100 µM; GI50 (UO-31 renal): 551 nM; TGI (UO-31 renal): 14.8 µM; GI50 (NCI-H23 lung): 1230 nM; TGI (NCI-H23 lung): 18.7 µM; GI50 (CAKI-1 renal): 259 nM; TGI (CAKI-1 renal): 3.09 µM; GI50 (BT-549 breast): 1750 nM; TGI (BT-549 breast): 12.2 µM; GI50 (NCI-H322M lung): 2220 nM; TGI (NCI-H322M lung): 47.8 µM; GI50 (HL-60(TB) leukemia): 94.9 nM; TGI (HL-60(TB) leukemia): 1380 nM; GI50 (HOP-92 NSCLC): 2030 nM; TGI (HOP-92 NSCLC): 29 µM; GI50 (MCF7 breast): 299 nM; TGI (MCF7 breast): 3.68 µM; GI50 (LOX IMVI melanoma): 799 nM; TGI (LOX IMVI melanoma): 13.9 µM; GI50 (HCC-2998 colon): 1800 nM; TGI (HCC-2998 colon): 18.5 µM; GI50 (PC-3 prostate): 819 nM; TGI (PC-3 prostate): 46.5 µM; GI50 (MDA-MB-468 breast): 1890 nM; TGI (MDA-MB-468 breast): 4.31 µM; GI50 (EKVX NSCLC): 6.55 µM; TGI (EKVX NSCLC): 27.9 µM; GI50 (U251 glioblastoma): 1600 nM; TGI (U251 glioblastoma): 22.4 µM; GI50 (NCI-H226 lung): 457 nM; TGI (NCI-H226 lung): 13.8 µM; GI50 (SNB-75 CNS): 1800 nM; TGI (SNB-75 CNS): 10.9 µM; GI50 (HS 578T breast): 1420 nM; TGI (HS 578T breast): 3.95 µM; GI50 (MDA-MB-435 melanoma): 3.37 µM; TGI (MDA-MB-435 melanoma): 66.9 µM; GI50 (SK-OV-3 ovarian): 1040 nM; TGI (SK-OV-3 ovarian): 29.9 µM; GI50 (UACC-257 melanoma): 10.8 µM; TGI (UACC-257 melanoma): 32.1 µM; GI50 (HOP-62 NSCLC): 2430 nM; TGI (HOP-62 NSCLC): 14.6 µM; GI50 (SR leukemia): 498 nM; TGI (SR leukemia): 1000 nM; GI50 (T-47D breast): 7.4 µM; TGI (T-47D breast): > 100 µM; GI50 (OVCAR-4 ovarian): 27.1 µM; TGI (OVCAR-4 ovarian): > 100 µM
